Literature values, collected in US20070167517A1, “Stabilized derivatives of ascorbic aicd” (Tagra Biotechnologies Ltd., priority 2003, published 2007).

Assays:
[1] = standard solutions and topical formulations, RP-HPLC
[2] = in the human

| half-life [2] | SMILES | stability [1] |
| --- | --- | --- |
|  | CCCCCCCCCCCCCCCC(=O)OC[C@H](O)[C@H]1OC(=O)C(O)=C1O [ascorbyl palmitate, 6-ascorbyl palmitate] | did not prevent hydrolysis of the molecule |
|  | O=C1O[C@H]([C@@H](O)CO)C(O)=C1OP(=O)([O-])[O-].[Mg+2] [magnesium ascorbyl phosphate, magnesium L-ascorbic acid-2-phosphate] | very stable |
| about 20 days | O=C1O[C@H]([C@@H](O)CO)C(O)=C1O [ascorbic acid] |  |
